Assay results published in patent US20160031927A1 (ASAVI, LLC, priority 2013, published 2016).
Where two headings read alike, the source gives them in different places.

Key:
[1] = tested on: subgenomic RNA-replicon HCV (genotype 1b); test: Antiviral activity in Huh7 cells with subgenomic HCV RNA-replicon, ELISA on viral cor-antigen (genotype 1b); format: cell-based
Experimental: (§1) Antiviral activity (EC50) of nucleoside inhibitors of HCV RNA-polymerase NS5B of the general formula 1, 2 and 3 (further—test compounds) was determined in the human hepatoma cell line Huh7, comprising subgenomic RNA-replicon HCV (genotype 1b, 1a and 2a). For quantitative estimation of viral replication was used a version of immune test ELISA on viral cor-antigen in 96-well plate. Cytotoxicity of the compounds was estimated in parallel regime. As a reference substance was used PSI-7977. Cells Huh7 were seeded in 96-well plate (7.5×10^3 cells to each well in 100 μl of culture medium). Solutions of the tested compounds in DMEM medium {DMEM 1×; Source: Cellgro; Catalogue: 10-013-CV} were prepared immediately before use. Eleven serial three fold dilutions with concentrations from 20 nM to […] were prepared. In 4 hours after seeding, serial dilutions of the compounds were added to the cells (100 μl to each well). Final concentration of tested compounds was varied from 10 nM to 0.1 pM, and DMSO—0.5%. If it was necessary, higher concentrations of the test compounds were investigated. Each dilution of the compound was tested on two identical wells. Then the cells were incubated for three days at 37° C./5% CO2 and fixed by addition of acetone/methanol (1:1) mixture in amount of 250 μl/well. In 1 min the cells were washed 3 times with PBS (Phosphate Buffered Saline) solution. Then the cells were blocked by addition of 10% fetal calf serum in PBS solution in amount of 150 μl/well for 1 h at room temperature. After that the cells were incubated with mouse monoclonal antibodies to cor-antigen HCV, clon C7-50 (Source: Affinity BioReagents; Catalogue: MA1-080) (100 μl/well, working dilution—1:500 in 10% fetal calf serum in PBS solution) for 2 h at 37° C. The cells were washed 6 times with PBS/0.05% Tween 20 solution, then, they were incubated for 1 h with goat anti-mouse immunoglobulin antibodies (conjugated with horseradish peroxidase, 100 μl/well, working dilution—1:2500 in 10% fetal calf serum in PBS solution). The cells were washed 6 times with PBS/0.05% Tween 20 solution, once with PBS solution, after that substrate (1 tablet of o-phenylenediamine (oPD)+12 ml citrate/phosphate buffer+5 μl 30% H2O2) in amount of 100 μl/well was added. The plates were kept for 30 min in the dark at room temperature. The reaction was arrested by the adding 2N H2SO4 in amount of 100 μl/well, and optical density (at wavelength 490 nm) was measured by means of multiscan plate reader Victor3 V 1420 (Perkin Elmer). IC50 values (concentration of test compound, lowering the level of virus RNA-replicon by 50%) for every tested compound were calculated using XLfit 4 program.

[2] = tested on: subgenomic RNA-replicon HCV (genotype 2a); test: Antiviral activity in Huh7 cells with subgenomic HCV RNA-replicon, ELISA on viral cor-antigen (genotype 2a); format: cell-based
Experimental: as §1

[3] = Cytotoxicity determination, ATPLite kit; format: cell-based, human; details: human; Huh7 cells, genotype 1b, 10% FBS
Experimental: (§2) Cytotoxicity of the test compounds (CC50) was investigated in experiments on the human hepatoma cell line Huh7. Metabolic activity of cells was determined using ATPLite kit (Perkin Elmer, Boston, USA) in accordance with manufacturer instructions. Cytotoxic action was estimated by seeding the cells into black microplate with transparent bottom (96 wells, 10^4 cells to each well). Three independent repeats were used for each test compound. The tested compounds were added in 18 h, after that the cells were incubated together with the compounds for 96 h. Each well was washed two times with phosphate buffered saline (0.2 ml/well) and then the cells were lysed by adding cell buffer (50 μl/well) (all mentioned reagents are included in ATPLite kit). The microplate was incubated for 5 min on a rotating platform at 600 r/min, after that 50 μl of substrate solution (a part of ATPLite kit) was added into each well. The microplate was incubated for additional 5 min on a rotating platform at 600 r/min, kept for 10 min in the dark; after that luminescence was measured using TopCount NXT instrument (Packard, Perkin Elmer). CC50 Value corresponding to concentration of tested compound at which 50% of cells were ruined was used as quantitative characteristic for cytotoxicity estimation. Calculation of CC50 value: for calculation of inhibition effectiveness (% Inh) the following equation was used: % Inh=[(L^pos−L^ex)/L^pos−L^neg)]*100%, where L^pos—positive control, luminescence in the wells with cells without compounds; L^neg—negative control, luminescence in the wells with medium without cells; L^ex—luminescence in wells with a compound of definite concentration. Then, CC50 values were calculated using XLfit 4 program.

[4] = tested on: subgenomic RNA-replicon HCV (genotype 1a); test: Antiviral activity in Huh7 cells with subgenomic HCV RNA-replicon, ELISA on viral cor-antigen (genotype 1a); format: cell-based
Experimental: as §1

[5] = tested on: viral hepatitis C; details: together with Daclatasvir; previously untreated patients; without interferon and Ribavirin; intermediate data; cited from earlier work
[6] = tested on: human hepatoma cell line Huh7; test: Cytotoxicity determination, ATPLite kit; format: cell-based; details: Huh7 cells, genotype 1b, 10% FBS
Experimental: as §2

[7] = Hepatitis C virus, Huh-7, read-out: EC50, HCV genotype 1b
[8] = Hepatitis C virus, Huh-7, Huh7 replicon, genotype 2a, 10% FBS, read-out: EC50, HCV genotype 2a
[9] = Hepatitis C virus, Huh-7, Huh7 replicon, genotype 1a, 10% FBS, read-out: EC50, HCV genotype 1a
[10] = Huh7 replicon, genotype 1b, 10% FBS, read-out: EC50, HCV genotype 1b
[11] = Huh7 replicon, genotype 2a, 10% FBS, read-out: EC50, HCV genotype 2a
[12] = Huh7 replicon, genotype 1a, 10% FBS, read-out: EC50, HCV genotype 1a

| Structure (SMILES) | EC50 [1, 7] | EC50 [2, 8] | CC50 at 96 h [3] | EC50 [4, 9] | EC50 ([2]; Hepatitis C virus, Huh-7, read-out: EC50, HCV genotype 2a) | EC50 ([4]; Hepatitis C virus, Huh-7, read-out: EC50, HCV genotype 1a) | EC50 [1, 10] | positive result in patients [5] | EC50 [2, 11] | CC50 [6] | EC50 [4, 12] |
| --- | --- | --- | --- | --- | --- | --- | --- | --- | --- | --- | --- |
| CC(C)OC(=O)[C@H](C)NP(=O)(OC[C@H]1O[C@@H](n2ccc(NC(=O)CN(C)C)nc2=O)C(F)(F)[C@@H]1O)Oc1ccccc1 (stereo partly drawn) [1.1.2(1), iso-propyl (S)-2-({(2R,3R,5R)-5-[4-(2-dimethylamino-acetylamino)-2-oxo-2H-pyrimidin-1-yl]-4,4-difluoro-3-hydroxy-tetrahydro-furan-2-ylmethoxy]-phenoxy-phosphorylamino}-propionate] | 35 nM | 116 nM | > 10 µM | 106 nM |  |  |  |  |  |  |  |
| CC(C)OC(=O)[C@H](C)NP(=O)(OC[C@H]1O[C@@H](n2ccc(NC(=O)[C@H](NC(=O)OC(C)(C)C)C(C)C)nc2=O)C(F)(F)[C@@H]1O)Oc1ccccc1 (some centres unmarked) [1.1.2(2)] | 60.6 nM | 78.9 nM | > 10 µM | 95.6 nM |  |  |  |  |  |  |  |
| CC(C)OC(=O)C(C)NP(=O)(OCC1OC(n2ccc(NC(=O)C(NC(=O)OC(C)(C)C)C(C)C)nc2=O)C(F)(F)C1O)Oc1ccccc1 (centres unmarked) [1.1.2(3)] | 60.9 nM |  | > 10 µM |  | 69.4 nM | 182 nM |  |  |  |  |  |
| CC(C)OC(=O)[C@H](C)NP(=O)(OC[C@H]1OC(n2ccc(NC(=O)[C@@H]3CCCN3C)nc2=O)C(F)(F)[C@@H]1O)Oc1ccc(Cl)cc1 (some centres unmarked) [1.1.2(6)] | 14.4 nM | 79.3 nM | > 10 µM | 124 nM |  |  |  |  |  |  |  |
| CC(C)OC(=O)[C@H](C)N[P@](=O)(OC[C@H]1O[C@@H](n2ccc(=O)[nH]c2=O)[C@](C)(F)[C@@H]1O)Oc1ccccc1 [PSI-7977, iso-propyl (S)-2-{(S)-[(2R,3R,4R,5R)-5-(2,4-dioxo-3,4-dihydro-2H-pyrimidin-1-yl)-4-fluoro-3-hydroxy-4-methyl-tetrahydro-furan-2-ylmethoxy]-phenoxy-phosphorylamino}-propanoate, reference compound] |  |  |  |  |  |  | 91.8 nM | 100% | 88.4 nM | > 10 µM | 292 nM |
| CC(C)OC(=O)[C@H](C)NP(=O)(OC[C@H]1OC(n2ccc(N)nc2=O)C(F)(F)[C@@H]1O)Oc1ccccc1 (stereo partly drawn) [compound 2, (S)-iso-propyl 2-((((2R,3R)-5-(4-aminooxopyrimidin-1(2H)-yl)-3-hydroxy-2-4,4-difluoro-tetrahydrofuran-2-yl)methoxy)(phenoxy)phosphorylamino)propanoate] |  |  |  |  |  |  | 13.9 nM |  | 57.2 nM | > 10 µM | 114 nM |
| CC(=O)O[C@@H]1[C@@H](COP(=O)(N[C@@H](C)C(=O)OC(C)C)Oc2ccccc2)OC(n2ccc(N)nc2=O)C1(F)F (stereo partly drawn) [compound 3, (S)-iso-propyl 2-((((2R,3R)-3-acetoxy-5-(4-amino-2-oxopyrimidin-1(2H)-yl)-4,4-difluoro-tetrahydrofuran-2-yl)methoxy)(phenoxy)phosphorylamino)propanoate] | 15.7 nM | 61 nM | > 10 µM | 141 nM |  |  |  |  |  |  |  |
